Assay results: the supplement of paper PMC10307832

What was measured:
Assay in all cases: relative viability (nuclei count vs DMSO), 5 days (fraction); higher = more cells survive
Doramapimod + Vorinostat = compound: Cc1ccc(-n2nc(C(C)(C)C)cc2NC(=O)Nc2ccc(OCCN3CCOCC3)c3ccccc23)cc1 [Doramapimod] + O=C(CCCCCCC(=O)Nc1ccccc1)NO [Vorinostat] (partner 1 µM)
In short: (§1)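 Lung cancer cell lines, seeded in 1536-well plates, were treated the following day by pin tool with a single drug or with five library-drug doses (not always all listed) in √10 steps on top of a fixed anchor-drug dose. Cells were fixed and nuclei stained in one step after 5 days, and nuclei were counted. Relative viability is the nuclei count for treated wells divided by that for vehicle wells, reported as medians of duplicate plates.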

IPA-3 + Lapatinib = compound: C1=CC=C2C(=C1)C=CC(=C2SSC3=C(C=CC4=CC=CC=C43)O)O [IPA-3] + CS(=O)(=O)CCNCc1ccc(-c2ccc3ncnc(Nc4ccc(OCc5cccc(F)c5)c(Cl)c4)c3c2)o1 [Lapatinib] (partner 2 µM)
In short: as §1

RAF265 + Dasatinib = compound: Cn1c(Nc2ccc(C(F)(F)F)cc2)nc2cc(Oc3ccnc(-c4ncc(C(F)(F)F)[nH]4)c3)ccc21 [RAF265] + Cc1nc(Nc2ncc(C(=O)Nc3c(C)cccc3Cl)s2)cc(N2CCN(CCO)CC2)n1 [Dasatinib] (partner 0.075 µM)
In short: as §1

IPA-3 + Navitoclax = compound: C1=CC=C2C(=C1)C=CC(=C2SSC3=C(C=CC4=CC=CC=C43)O)O [IPA-3] + CC1(C)CCC(c2ccc(Cl)cc2)=C(CN2CCN(c3ccc(C(=O)NS(=O)(=O)c4ccc(N[C@H](CCN5CCOCC5)CSc5ccccc5)c(S(=O)(=O)C(F)(F)F)c4)cc3)CC2)C1 [Navitoclax] (partner 0.5 µM)
In short: as §1

Row | Cell Line | relative viability (Doramapimod + Vorinostat; first compound 0.02 µM) | relative viability (Doramapimod + Vorinostat; first compound 0.06325 µM) | relative viability (Doramapimod + Vorinostat; first compound 0.2 µM) | relative viability (Doramapimod + Vorinostat; first compound 0.6325 µM) | relative viability (Doramapimod + Vorinostat; first compound 2 µM) | relative viability (IPA-3 + Lapatinib; first compound 0.2 µM) | relative viability (IPA-3 + Lapatinib; first compound 0.6325 µM) | relative viability (IPA-3 + Lapatinib; first compound 2 µM) | relative viability (IPA-3 + Lapatinib; first compound 6.325 µM) | relative viability (IPA-3 + Lapatinib; first compound 20 µM) | relative viability (RAF265 + Dasatinib; first compound 0.01 µM) | relative viability (RAF265 + Dasatinib; first compound 0.03162 µM) | relative viability (RAF265 + Dasatinib; first compound 0.1 µM) | relative viability (RAF265 + Dasatinib; first compound 0.3162 µM) | relative viability (RAF265 + Dasatinib; first compound 1 µM) | relative viability (IPA-3 + Navitoclax; first compound 0.2 µM) | relative viability (IPA-3 + Navitoclax; first compound 0.6325 µM) | relative viability (IPA-3 + Navitoclax; first compound 2 µM) | relative viability (IPA-3 + Navitoclax; first compound 6.325 µM) | relative viability (IPA-3 + Navitoclax; first compound 20 µM)
1 | NCI-H1993 | 0.835 | 0.723 | 0.819 | 1.18 | 0.834 | 0.829 | 0.742 | 0.767 | 0.909 | 0.738 | 0.618 | 0.497 | 0.545 | 0.619 | 0.528 | 0.973 | 0.911 | 0.896 | 0.894 | 0.838
2 | NCI-H2009 | 0.765 | 0.745 | 0.762 | 0.92 | 0.777 | 1.2 | 0.899 | 0.832 | 0.853 | 0.577 | 0.3 | 0.262 | 0.227 | 0.214 | 0.147 | 1.29 | 1.17 | 1.19 | 1.16 | 1.15
3 | NCI-H2023 | 0.718 | 0.664 | 0.556 | 0.607 | 0.519 | 0.91 | 0.711 | 0.774 | 0.925 | 0.832 | 0.601 | 0.562 | 0.516 | 0.419 | 0.365 | 1.1 | 0.977 | 0.984 | 1.04 | 0.967
4 | NCI-H2085 | 0.827 | 0.821 | 0.782 | 0.872 | 0.722 | 0.931 | 0.723 | 0.741 | 0.712 | 0.825 | 0.241 | 0.315 | 0.289 | 0.205 | 0.276 | 1.15 | 0.985 | 1.25 | 1.14 | 1.18
5 | NCI-H2087 | 0.932 | 0.764 | 0.668 | 0.718 | 0.669 | 0.832 | 0.987 | 0.982 | 1.06 | 0.811 | 0.743 | 0.76 | 0.6 | 0.639 | 0.383 | 1.15 | 0.863 | 0.837 | 0.859 | 0.926
6 | NCI-H2126 | 0.792 | 0.765 | 0.763 | 0.671 | 0.671 | 0.792 | 0.76 | 0.771 | 0.75 | 0.792 | 0.716 | 0.656 | 0.622 | 0.464 | 0.354 | 0.861 | 0.816 | 0.828 | 0.892 | 0.891
7 | NCI-H2170 | 0.737 | 0.882 | 0.704 | 0.844 | 0.814 | 0.269 | 0.259 | 0.274 | 0.274 | 0.267 | 0.663 | 0.474 | 0.539 | 0.241 | 0.432 | 0.702 | 0.614 | 0.552 | 0.507 | 0.504
8 | NCI-H2228 | 0.588 | 0.91 | 0.496 | 0.894 | 0.516 | 1.87 | 1.39 | 1.24 | 0.825 | 1.18 | 0.484 | 0.535 | 0.397 | 0.179 | 0.139 | 0.917 | 0.89 | 0.788 | 0.886 | 1.02
